Experimental findings from patent publication US3962445A, “Anti-allergenic carbostyril derivatives” (Beecham Group Limited, priority 1973, dated 1976) are described below.

This experiment deals with PCA response. Description: rat Passive Cutaneous Anaphylaxis Test (PCA test). Type of experiment: in vivo, rat (male Wistar). The following applies: subcutaneous, as sodium salt. As to the method:
Some of the 4-hydroxycarbostyrils prepared in the preceding examples were tested in the rat Passive Cutaneous Anaphylaxis Test (PCA test), described below. They were administered as their sodium salts either in pH 7.2 phosphate buffer (for soluble salts) or as a suspension in 1% methyl cellulose (for insoluble salts).
Male Wistar rats of 250-300g, were injected intraperitoneally with 0.5 ml. of Bordatella pertussis vaccine (containing 4 × 10^10 dead organism per ml) and subcutaneously with 0.5 ml. of an emulsion of 100 mg. of ovalbumin in 2 ml of saline and 3 ml. of incomplete Freunds' adjuvant. Rats were bled by cardiac puncture on day 18, the blood was pooled and separated and serum stored at -20° and thawed only once before use.
0.1 ml of each of six twofold serial dilutions of the serum in 0.9% saline were injected intradermally into separate sites on the shaved dorsal surface of 250-350 g. Male Wistar rats. 72 hours later the animals were challenged by i v injection of 0.3 ml. of 1% ovalbumin mixed with 0.1 ml of a 5% solution of pontamine sky blue dye both in isotonic saline buffered with pH. 7.2 Sorenson buffer (P P S ) The rats were killed after 20 minutes and the diameter of the blue wheals at the antibody injection sites were measured. The starting dilution of the serum was adjusted so that there was no response after challenge, at the site of injection of the highest dilution and a maximum response at the two or three lowest dilutions. Typically, six twofold serial dilutions of the serum 1/4 to […] were used.
Amounts of the compounds were administered to rats by subcutaneous injection, into the nucal region, of a solution of the compound in P.B.S. or as a suspension in 1% methyl cellulose, each amount to a test group of six animals at a specified time prior to intravenous challenge with ovalbumin.
% Inhibition of P.C.A = 100 (1 - a/b)
For those compounds having insoluble sodium salts, the salts were isolated by reaction of the free nitro compound with 2.5N sodium hydroxide and the filtered sodium salt washed free of alkali with water. The dried salts were then administered as a suspension in 1% methyl cellulose.

Setting [1] is: 0 h, time 0 mins. prior to i.v. ovalbumin challenge.
Setting [2] is: 0.5 h, time 30 mins. prior to i.v. ovalbumin challenge.
[3] abbreviates: 1 h, time 60 mins. prior to i.v. ovalbumin challenge.

Structures are written as SMILES.

In general, inhibition refers to the change of the read-out against control, counted positive when it falls. As to `O=c1[nH]c2ccccc2c(O)c1[N+](=O)[O-]` [Example 1, 4-Hydroxy-3-nitrocarbostyril], the inhibition at 25 mg/kg under setting [1] amounted to 9% and the inhibition at 25 mg/kg under setting [2] came out at 19%. Further, the inhibition at 100 mg/kg by setting is: under setting [1], 33%; under setting [2], 40%.
Turning to `O=c1[nH]c2ccc([N+](=O)[O-])cc2c(O)c1[N+](=O)[O-]` [Example 2, 3,6-Dinitro-4-hydroxycarbostyril], under setting [1], the inhibition at 25 mg/kg was 4% and the inhibition at 100 mg/kg was -14%. Under setting [3], the inhibition at 25 mg/kg amounted to 31% and the inhibition at 100 mg/kg stood at 23%.
For `O=c1[nH]c2ccc(Cl)cc2c(O)c1[N+](=O)[O-]` [Example 3, 6-Chloro-4-hydroxy-3-nitrocarbostyril], the inhibition at 25 mg/kg was -39% under setting [1] and 33% under setting [3]. In addition, the inhibition at 100 mg/kg reads like this: under setting [1], -30%; under setting [3], 54%.
Take `Cc1ccc2[nH]c(=O)c([N+](=O)[O-])c(O)c2c1` [Example 4, 4-Hydroxy-6-methyl-3-nitrocarbostyril]: the inhibition at 25 mg/kg runs as follows: under setting [1], 14%; under setting [3], 15%. For the same compound, the inhibition at 100 mg/kg was 30% under setting [1] and 23% under setting [3].
As for `CCc1ccc2[nH]c(=O)c([N+](=O)[O-])c(O)c2c1` [Example 5, 6-Ethyl-4-hydroxy-3-nitro-carbostyril], under setting [1], the inhibition at 25 mg/kg is 19% and the inhibition at 100 mg/kg was 26%. Besides, under setting [3], the inhibition at 25 mg/kg came to 13% and the inhibition at 100 mg/kg came out at 33%.
On to `Cc1cccc2[nH]c(=O)c([N+](=O)[O-])c(O)c12` [Example 6 (a), 4-Hydroxy-5-methyl-3-nitrocarbostyril], for which the inhibition at 25 mg/kg under setting [1] turned out to be 5% and the inhibition at 25 mg/kg under setting [3] turned out to be 1%. Besides, the inhibition at 100 mg/kg runs as follows: under setting [1], 7%; under setting [3], 51%.
Take `Cc1ccc2c(O)c([N+](=O)[O-])c(=O)[nH]c2c1` [Example 6 (b), 4-hydroxy-7-methyl-3-nitrocarbostyril]: under setting [1], the inhibition at 25 mg/kg was found to be 12% and the inhibition at 100 mg/kg worked out at 7%. Under setting [3], the inhibition at 25 mg/kg came to 1% and the inhibition at 100 mg/kg came to 23%.
Consider `Cc1cccc2c(O)c([N+](=O)[O-])c(=O)[nH]c12` [Example 7, 4-Hydroxy-8-methyl-3-nitrocarbostyril], for which the inhibition at 25 mg/kg came to 23% under setting [1] and 18% under setting [2]. Besides, the inhibition at 100 mg/kg turned out to be 71% under setting [1] and 36% under setting [2].
Turning to `O=c1[nH]c2ccc(Br)cc2c(O)c1[N+](=O)[O-]` [Example 8, 6-Bromo-4-hydroxy-3-nitrocarbostyril], the inhibition at 25 mg/kg by setting is: under setting [1], 5%; under setting [3], 25%. Besides, the inhibition at 100 mg/kg is -11% under setting [1] and 19% under setting [3].
Regarding `Cc1ccc(C)c2c(O)c([N+](=O)[O-])c(=O)[nH]c12` [Example 9, 5,8-Dimethyl-4-hydroxy-3-nitrocarbostyril], under setting [1], the inhibition at 25 mg/kg stood at 7% and the inhibition at 100 mg/kg amounted to 22%. Moreover, under setting [2], the inhibition at 25 mg/kg was 9% and the inhibition at 100 mg/kg turned out to be 27%.
With `Cc1cc(C)c2c(O)c([N+](=O)[O-])c(=O)[nH]c2c1` [Example 10, 5,7-Dimethyl-4-hydroxy-3-nitrocarbostyril], under setting [1], the inhibition at 25 mg/kg was 0% and the inhibition at 100 mg/kg worked out at 22%. Under setting [3], the inhibition at 25 mg/kg was 35% and the inhibition at 100 mg/kg came to 44%.
In the same order, the values of `Cc1cc(C)c2[nH]c(=O)c([N+](=O)[O-])c(O)c2c1` [Example 11, 6,8-Dimethyl-4-hydroxy-3-nitrocarbostyril] are 11%, 0%, 52% and 51%.
As to `Cc1ccc2c(O)c([N+](=O)[O-])c(=O)[nH]c2c1C` [Example 12, 7,8-Dimethyl-4-hydroxy-3-nitrocarbostyril], the inhibition at 25 mg/kg under setting [1] stood at 9% and the inhibition at 25 mg/kg under setting [2] was found to be 36%. Moreover, the inhibition at 100 mg/kg was determined as 50% under setting [1] and 47% under setting [2].
On to `O=c1[nH]c2c(Br)cccc2c(O)c1[N+](=O)[O-]` [Example 13, 8-Bromo-4-hydroxy-3-nitrocarbostyril], for which the inhibition at 25 mg/kg came to 36% under setting [1] and 32% under setting [3]. For the same compound, the inhibition at 100 mg/kg is 49% under setting [1] and 32% under setting [3].
In the case of `O=c1[nH]c2c(Cl)cccc2c(O)c1[N+](=O)[O-]` [Example 14, 8-Chloro-4-hydroxy-3-nitrocarbostyril], the inhibition at 25 mg/kg reads like this: under setting [1], 18%; under setting [3], 42%. Also, the inhibition at 100 mg/kg reads like this: under setting [1], 26%; under setting [3], 43%.
In the case of `Cc1cc2[nH]c(=O)c([N+](=O)[O-])c(O)c2cc1C` [Example 15, 6,7-Dimethyl-4-hydroxy-3-nitrocarbostyril], the inhibition at 25 mg/kg by setting is: under setting [1], 62%; under setting [3], 27%. Moreover, the inhibition at 100 mg/kg reads like this: under setting [1], 88%; under setting [3], 54%.
Consider `O=c1[nH]c2cc(Cl)ccc2c(O)c1[N+](=O)[O-]` [Example 16, 7-Chloro-4-hydroxy-3-nitrocarbostyril], for which, under setting [1], the inhibition at 25 mg/kg is -3% and the inhibition at 100 mg/kg came to 13%. Besides, under setting [2], the inhibition at 25 mg/kg came out at 9% and the inhibition at 100 mg/kg worked out at 63%.
`CCc1cc2[nH]c(=O)c([N+](=O)[O-])c(O)c2cc1CC` [Example 17, 6,7-Diethyl-4-hydroxy-3-nitrocarbostyril]: under setting [1], the inhibition at 25 mg/kg was 25% and the inhibition at 100 mg/kg amounted to 32%. Under setting [3], the inhibition at 25 mg/kg is 34% and the inhibition at 100 mg/kg was determined as 42%.
On to `CCn1c(=O)c([N+](=O)[O-])c(O)c2ccccc21` [Example 30, 1-Ethyl-4-hydroxy-3-nitro carbostyril], for which, under setting [1], the inhibition at 25 mg/kg was determined as 9% and the inhibition at 100 mg/kg was determined as 20%. Under setting [2], the inhibition at 25 mg/kg amounted to 34% and the inhibition at 100 mg/kg stood at 41%.
In the same order, the values of `Cn1c(=O)c([N+](=O)[O-])c(O)c2ccccc21` [Example 31, 4-Hydroxy-1-methyl-3-nitro carbostyril] are 21%, 35%, 26% and 36%.
For `Cc1ccc2c(c1)c(O)c([N+](=O)[O-])c(=O)n2C` [Example 32, 1,6-Dimethyl-4-hydroxy-3-nitro carbostyril] the same measures were -12%, 16%, 55% and 26%.
For the compound `CCn1c(=O)c([N+](=O)[O-])c(O)c2cc(C)ccc21` [Example 33, 1-Ethyl-4-hydroxy-6-methyl-3-nitro carbostyril], the inhibition at 25 mg/kg reads like this: under setting [1], -12%; under setting [3], -5%. The inhibition at 100 mg/kg by setting is: under setting [1], -1%; under setting [3], 16%.
As to `Cn1c(=O)c([N+](=O)[O-])c(O)c2cc(Cl)ccc21` [Example 34, 6-Chloro-4-hydroxy-1-methyl-3-nitro carbostyril], under setting [1], the inhibition at 25 mg/kg was -5% and the inhibition at 100 mg/kg amounted to 43%. Under setting [3], the inhibition at 25 mg/kg was determined as 8% and the inhibition at 100 mg/kg amounted to 61%.
`CCn1c(=O)c([N+](=O)[O-])c(O)c2cc(Cl)ccc21` [Example 35, 6-Chloro-1-ethyl-4-hydroxy-3-nitro carbostyril]: under setting [1], the inhibition at 25 mg/kg is -8% and the inhibition at 100 mg/kg was determined as 5%. Further, under setting [3], the inhibition at 25 mg/kg stood at 11% and the inhibition at 100 mg/kg came to 88%.
In the same order, the values of `Cn1c(=O)c([N+](=O)[O-])c(O)c2ccc(Cl)cc21` [Example 36, 7-Chloro-4-hydroxy-1-methyl-3-nitro carbostyril] are -4%, 34%, -2% and 50%.
Consider `O=c1c([N+](=O)[O-])c(O)c2ccccc2n1-c1ccccc1` [Example 37, 4-Hydroxy-3-nitro-1-phenylcarbostyril], for which, under setting [1], the inhibition at 25 mg/kg was -2% and the inhibition at 100 mg/kg worked out at 13%. Under setting [2], the inhibition at 25 mg/kg was determined as 1% and the inhibition at 100 mg/kg was 42%.
